# From US9480259B2, “Pyrazolopyrans having herbicidal and pharmaceutical properties” (BASF SE, priority 2012, dated 2016)
# pEC50: −log10 of the molar value.
# Target: Arabidopsis thaliana SHMT
# Assay: SHMT activity assay (ED50 SHMT), coupled with N5,N10-CH2-THF dehydrogenase, NADH at 340 nm
# Type: biochemical
# Conditions: Arabidopsis thaliana SHMT enzyme assay; values given as upper bounds
# Procedure, shortened: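 His-tagged SHMT purified on Ni-NTA. NADH formation followed at 340 nm for 30 min; ED50 from inhibition of initial velocity.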
row,Compound,pEC50
1,COC(=O)c1csc(-c2cc(C#N)cc(C3(C(C)C)C(C#N)=C(N)Oc4[nH]nc(C)c43)c2)c1 (stereo not shown) [Compound 2.679],> 8.00
2,CCOC(=O)CS(=O)(=O)N(C)c1cc(C#N)cc(C2(C(C)C)C(C#N)=C(N)Oc3[nH]nc(C)c32)c1 (stereo not shown) [Compound 2.725],> 7.00
3,Cc1n[nH]c2c1C(c1cc(C#N)cc(N(C)C(=O)CCc3nnn[nH]3)c1)(C1CCC1)C(C#N)=C(N)O2 (stereo not shown) [Compound 2.718],> 7.00
4,Cc1n[nH]c2c1C(c1cc(Cl)cc(N(C)C(=O)CCC#N)c1)(C1CCC1)C(C#N)=C(N)O2 (stereo not shown) [Compound 2.697],> 7.00
5,Cc1n[nH]c2c1C(c1cc(C#N)cc(-c3ccc(C(=O)O)o3)c1)(C1(F)COC1)C(C#N)=C(N)O2 (stereo not shown) [Compound 2.681],> 5.00

# Same assay, conditions: Table 2, Arabidopsis thaliana SHMT enzyme assay; values given as upper bounds
row,Compound,pEC50
1,Cc1n[nH]c2c1C(c1cc(C#N)cc(C(=O)OCc3ccccc3)c1)(C1CCC1)C(C#N)=C(N)O2 (stereo not shown) [Compound 2.370],> 8.00
2,Cc1n[nH]c2c1C(c1ccc(F)c(C#N)c1)(C1CCC1)C(C#N)=C(N)O2 (stereo not shown) [Compound 2.269],> 8.00
3,Cc1n[nH]c2c1C(c1cc(Cl)cc(OC(F)(F)F)c1)(C1CCC1)C(C#N)=C(N)O2 (stereo not shown) [Compound 2.266],> 8.00
4,Cc1n[nH]c2c1C(c1cc(C#N)cc(-c3ccc(F)cc3)c1)(C1CCC1)C(C#N)=C(N)O2 (stereo not shown) [Compound 2.328],> 8.00
5,Cc1n[nH]c2c1C(c1cccc(C(F)(F)F)c1)(C1CCCCC1)C(C#N)=C(N)O2 (stereo not shown) [Compound 2.230],> 5.00

# Same assay, conditions: Table 2; values given as upper bounds
row,Compound,pEC50
1,Cc1n[nH]c2c1C(c1cccc([N+](=O)[O-])c1)(C(F)(F)F)C(C#N)=C(N)O2 (stereo not shown) [Compound 2.68.],> 6.00
2,CCOC(=O)COc1ccc(-c2cc(C#N)cc(C3(C4CCC4)C(C#N)=C(N)Oc4[nH]nc(C)c43)c2)cc1 (stereo not shown) [Compound 2.536],> 8.00
3,COC(=O)c1cc(OC)cc(-c2cc(C#N)cc(C3(C4CCC4)C(C#N)=C(N)Oc4[nH]nc(C)c43)c2)c1 (stereo not shown) [Compound 2.548],> 8.00
4,CCCC1(c2cc(C#N)cc(C#N)c2)C(C#N)=C(N)Oc2[nH]nc(C(F)F)c21 (stereo not shown) [Compound 2.610],> 7.00
5,Cc1n[nH]c2c1C(c1cc(C#N)cc(-c3ccc(Cl)c(C(=O)O)c3)c1)(C1CCC1)C(C#N)=C(N)O2 (stereo not shown) [Compound 2.556],> 8.00
6,CCc1n[nH]c2c1C(c1cc(C#N)cc(C#N)c1)(C(C)C)C(C#N)=C(N)O2 (stereo not shown) [Compound 2.520],> 8.00
7,Cc1n[nH]c2c1C(CC(C)C)(c1ccc(Cl)cc1)C(C#N)=C(N)O2 (stereo not shown) [Compound 2.142.],> 5.00
8,Cc1n[nH]c2c1C(c1cc(C#N)cc(-c3cc(Cl)cc(C(=O)O)c3)c1)(C1CCC1)C(C#N)=C(N)O2 (stereo not shown) [Compound 2.559],> 7.00
9,Cc1n[nH]c2c1C(c1ccc(Cl)c(Cl)c1)(C(C)C)C(C#N)=C(N)O2 (stereo not shown) [Compound 2.135.],> 7.00
10,Cc1n[nH]c2c1C(c1cccc(C(F)(F)F)c1)(C1CC1)C(C#N)=C(N)O2 (stereo not shown) [Compound 2.60.],> 6.00
11,Cc1n[nH]c2c1C(c1cc(Cl)cc(OCc3nnn[nH]3)c1)(C1CCC1)C(C#N)=C(N)O2 (stereo not shown) [Compound 2.446],> 8.00
12,Cc1n[nH]c2c1C(c1cc(C#N)cc(-c3cc(C(=O)O)cc([N+](=O)[O-])c3)c1)(C1CCC1)C(C#N)=C(N)O2 (stereo not shown) [Compound 2.566],> 8.00
13,Cc1n[nH]c2c1C(c1cc(C#N)cc(CC(=O)O)c1)(C1CCC1)C(C#N)=C(N)O2 (stereo not shown) [Compound 2.627],> 7.00
14,CCCC1(c2cc(C#N)cc(C(F)(F)F)c2)C(C#N)=C(N)Oc2[nH]nc(C(C)C)c21 (stereo not shown) [Compound 2.582],> 8.00
15,Cc1n[nH]c2c1C(c1cc(C#N)cc(N(C)C(=O)C(C)C)c1)(C1CCC1)C(C#N)=C(N)O2 (stereo not shown) [Compound 2.613],> 8.00
16,CCC1(c2ccc(OC(=O)c3c(Cl)cccc3Cl)c(C)c2)C(C#N)=C(N)Oc2[nH]nc(C)c21 (stereo not shown) [Compound 2.48.],> 5.00
17,CCC1(c2cc(Br)cc(C#N)c2)C(C#N)=C(N)Oc2[nH]nc(COC)c21 (stereo not shown) [Compound 2.590],> 6.00

# Same assay, conditions: inhibition of initial velocity of Arabidopsis thaliana SHMT
row,Compound,pEC50
1,Cc1n[nH]c2c1C(c1ccc(Cl)s1)(C1CC1)C(C#N)=C(N)O2 (stereo not shown) [Compound 4.74],> 6.00
